Data: patent US7723332B2, “Aryl sulfonamides useful for modulation of the progesterone receptor” (Wyeth LLC, priority 2007, dated 2010)
pEC50, pIC50: −log10 of the molar value.

Tested on: alkaline phosphatase activity in T47D cells
Experiment: Effects of progestins and antiprogestins on alkaline phosphatase activity in T47D cells
Type: cell-based
Description: Effects of Progestins and Antiprogestins on Alkaline Phosphatase Activity in T47D Cells
This example was performed to identify progestins or antiprogestins by determining a compound's effect on alkaline phosphatase activity in T47D cells.
Culture medium: DMEM:F12 (1:1) (GIBCO, BRL) supplemented with 5% (v/v) charcoal stripped fetal bovine serum (not heat-inactivated), 100 U/mL penicillin, 100 μg/mL streptomycin, and 2 mM the GlutaMax™ reagent (GIBCO, BRL).
Alkaline phosphatase assay buffer: • I. 0.1M Tris-HCl, pH 9.8, containing 0.2% the Triton® X-100 reagent • II. 0.1 M Tris-HCl, pH 9.8, containing 4 mM p-nitrophenyl phosphate (Sigma).
Frozen T47D cells were thawed in a 37° C. water bath and diluted to 280,000 cells/mL in culture medium. To each well in a 96-well plate (Falcon, Becton Dickinson Labware), 180 μL of diluted cell suspension was added. Twenty μL of reference or test compounds diluted in the culture medium was then added to each well. When testing for progestin antagonist activity, reference antiprogestins or test compounds were added in the presence of 1 nM progesterone. The cells were incubated at 37° C. in a 5% CO2/humidified atmosphere for 24 hours. NOTE: For high throughput screening, one concentration of each compound was tested at 0.3 μg/mL. Based on an average molecular weight of 300 g/mol for the compounds in the library, the concentration was approximately 1 μM. Subsequently, active compounds were tested in dose response assays to determine EC50 and IC50.
At the end of treatment, the medium was removed from the plate. Fifty μL of assay buffer I was added to each well. The plates were shaken in a titer plate shaker for 15 minutes. 150 μL of assay buffer II was then added to each well. Optical density measurements were taken at 5 minute intervals for 30 minutes at a test wavelength of 405 nm.
For reference and test compounds, a dose response curve was generated for dose (X-axis) vs. the rate of enzyme reaction (slope) (Y-axis). Square root-transformed data was used for analysis of variance and nonlinear dose response curve fitting for both agonist and antagonist modes. Huber weighting was used to down-weight the effects of outliners. EC50 or IC50 values were calculated from the retransformed values. JMP software (SAS Institute, Inc.) was used for both one-way analysis of variance and non-4 linear dose response analysis in both single dose and dose response studies.
Progesterone and trimegestone are reference progestins known in the art and typically show an EC50 of about 0.1 nM to about 2.0 nM.

[1] = Homo sapiens, T47D alkaline phosphatase assay, antagonist mode in the presence of 1 nM progesterone, 24 hours

Row | pIC50 [1] | SMILES | also measured
1 |  | CC(=O)[C@H]1CC[C@H]2[C@@H]3CCC4=CC(=O)CC[C@]4(C)[C@H]3CC[C@]12C [Progesterone] | pEC50 (Homo sapiens, T47D, reference progestins, agonist mode, typical values): 8.70 to 10.00
2 | 7.46 | Cn1c(C#N)ccc1-c1ccc(S(=O)(=O)NCC2CC2)c(C(F)(F)F)c1 [Example 28, 4-(5-cyano-1-methyl-1H-pyrrol-2-yl)-N-(cyclopropylmethyl)-2-(trifluoromethyl)benzenesulfonamide] | 
3 | 8.01 | Cn1c(C#N)ccc1-c1ccc(S(=O)(=O)NC2CC2)cc1F [Example 38, 4-(5-cyano-1-methyl-1H-pyrrol-2-yl)-N-cyclopropyl-3-fluorobenzenesulfonamide] | 
4 | 8.07 | CNS(=O)(=O)c1ccc(-c2ccc(C#N)n2C)c(F)c1 [Example 31, 4-(5-cyano-1-methyl-1H-pyrrol-2-yl)-3-fluoro-N-methylbenzenesulfonamide] | 
5 | 7.34 | CCNS(=O)(=O)c1ccc(-c2ccc(C#N)n2C)cc1C(F)(F)F [Example 24, 4-(5-cyano-1-methyl-1H-pyrrol-2-yl)-N-ethyl-2-(trifluoromethyl)benzenesulfonamide] | 
6 | 6.82 | Cn1c(C#N)ccc1-c1ccc(S(=O)(=O)N2CCCC2)cc1F [Example 37, 5-[2-fluoro-4-(pyrrolidin-1-ylsulfonyl)phenyl]-1-methyl-1H-pyrrole-2-carbonitrile] | 
7 | 6.83 | Cn1c(C#N)ccc1-c1ccc(S(=O)(=O)N2CCCC2)cc1 [Example 10, 1-methyl-5-[4-(pyrrolidin-1-ylsulfonyl)phenyl]-1H-pyrrole-2-carbonitrile] | 
8 | 7.88 | CCNS(=O)(=O)c1ccc(-c2ccc(C#N)n2C)c(F)c1 [Example 33, 4-(5-cyano-1-methyl-1H-pyrrol-2-yl)-N-ethyl-3-fluorobenzenesulfonamide] | 
9 | 7.64 | Cn1c(C#N)ccc1-c1ccc(S(=O)(=O)N2CCCC2)c(OC(F)(F)F)c1 [Example 53, 1-methyl-5-[4-(pyrrolidin-1-ylsulfonyl)-3-(trifluoromethoxy)phenyl]-1H-pyrrole-2-carbonitrile] | 
10 | 6.89 | CN(C)S(=O)(=O)c1ccc(-c2ccc(C#N)n2C)c(F)c1 [Example 32, 4-(5-cyano-1-methyl-1H-pyrrol-2-yl)-3-fluoro-N,N-dimethylbenzenesulfonamide] | 
11 | 6.72 | Cn1c(C#N)ccc1-c1ccc(S(=O)(=O)N2CCOCC2)cc1 [Example 12, 1-methyl-5-[4-(morpholin-4-ylsulfonyl)phenyl]-1H-pyrrole-2-carbonitrile] | 
12 | 6.88 | Cn1c(C#N)ccc1-c1ccc(S(=O)(=O)N2CCCCC2)cc1 [Example 11, 1-methyl-5-[4-(piperidin-1-ylsulfonyl)phenyl]-1H-pyrrole-2-carbonitrile] | 
13 | 7.31 | CC(C)NS(=O)(=O)c1cc(F)c(-c2ccc(C#N)n2C)cc1F [Example 60, 4-(5-cyano-1-methyl-1H-pyrrol-2-yl)-2,5-difluoro-N-isopropylbenzenesulfonamide] | 
14 | 7.39 | Cn1c(C#N)ccc1-c1ccc(S(=O)(=O)NCC2CC2)cc1F [Example 39, 4-(5-cyano-1-methyl-1H-pyrrol-2-yl)-N-(cyclopropylmethyl)-3-fluorobenzenesulfonamide] | 
15 | 7.56 | CC(C)NS(=O)(=O)c1ccc(-c2ccc(C#N)n2C)cc1 [Example 5, 4-(5-cyano-1-methyl-1H-pyrrol-2-yl)-N-isopropylbenzenesulfonamide] | 
16 | 7.59 | CN(C)c1cc(-c2ccc(C#N)n2C)ccc1S(=O)(=O)N(C)C [Example 58, 4-(5-cyano-1-methyl-1H-pyrrol-2-yl)-2-(dimethylamino)-N,N-dimethylbenzenesulfonamide] | 
17 | 7.49 | CC(C)NS(=O)(=O)c1ccc(-c2ccc(C#N)n2C)cc1OC(F)(F)F [Example 51, 4-(5-cyano-1-methyl-1H-pyrrol-2-yl)-N-isopropyl-2-(trifluoromethoxy)benzenesulfonamide] | 
18 | 7.58 | CCCNS(=O)(=O)c1ccc(-c2ccc(C#N)n2C)c(F)c1 [Example 36, 4-(5-cyano-1-methyl-1H-pyrrol-2-yl)-3-fluoro-N-propylbenzenesulfonamide] | 
19 |  | Cn1c(C#N)ccc1-c1cc(F)c(S(=O)(=O)NC2CC2)cc1F [Example 61, 4-(5-cyano-1-methyl-1H-pyrrol-2-yl)-N-cyclopropyl-2,5-difluorobenzenesulfonamide] | Active Dose (T47D alkaline phosphatase assay, antagonist mode in the presence of 1 nM progesterone, 24 hours): 30 nM

Row | pIC50 [1] | SMILES | also measured
20 | 7.32 | CC(C)CNS(=O)(=O)c1ccc(-c2ccc(C#N)n2C)cc1 [Example 6, 4-(5-cyano-1-methyl-1H-pyrrol-2-yl)-N-isobutylbenzenesulfonamide] | 
21 | 6.79 | Cn1c(C#N)ccc1-c1cc(F)c(S(=O)(=O)NCC2CC2)cc1F [Example 62, 4-(5-cyano-1-methyl-1H-pyrrol-2-yl)-N-(cyclopropylmethyl)-2,5-difluorobenzenesulfonamide] | 
22 | 7.20 | CN(C)S(=O)(=O)c1ccc(-c2ccc(C#N)n2C)cc1OC(F)(F)F [Example 48, 4-(5-cyano-1-methyl-1H-pyrrol-2-yl)-N,N-dimethyl-2-(trifluoromethoxy)benzenesulfonamide] | 
23 | 7.12 | Cn1c(C#N)ccc1-c1ccc(S(N)(=O)=O)c(OC(F)(F)F)c1 [Example 46, 4-(5-cyano-1-methyl-1H-pyrrol-2-yl)-2-(trifluoromethoxy)benzenesulfonamide] | 
24 | 7.14 | Cn1c(C#N)ccc1-c1ccc(S(=O)(=O)NC2CC2)c(OC(F)(F)F)c1 [Example 54, 4-(5-cyano-1-methyl-1H-pyrrol-2-yl)-N-cyclopropyl-2-(trifluoromethoxy)benzenesulfonamide] | 
25 | 7.18 | CCN(CC)S(=O)(=O)c1ccc(-c2ccc(C#N)n2C)c(F)c1 [Example 34, 4-(5-cyano-1-methyl-1H-pyrrol-2-yl)-N,N-diethyl-3-fluorobenzenesulfonamide] | 
26 | 7.76 | CCCNS(=O)(=O)c1ccc(-c2ccc(C#N)n2C)cc1C(F)(F)F [Example 25, 4-(5-cyano-1-methyl-1H-pyrrol-2-yl)-N-propyl-2-(trifluoromethyl)benzenesulfonamide] | 
27 | 7.00 | CCN(CC)S(=O)(=O)c1ccc(-c2ccc(C#N)n2C)cc1OC(F)(F)F [Example 50, 4-(5-cyano-1-methyl-1H-pyrrol-2-yl)-N,N-diethyl-2-(trifluoromethoxy)benzenesulfonamide] | 
28 | 7.21 | CCN(CC)S(=O)(=O)c1ccc(-c2ccc(C#N)n2C)cc1F [Example 41, 4-(5-cyano-1-methyl-1H-pyrrol-2-yl)-N,N-diethyl-2-fluorobenzenesulfonamide] | 
29 | 7.23 | Cn1c(C#N)ccc1-c1ccc(S(=O)(=O)NC2CCCCC2)cc1 [Example 15, 4-(5-cyano-1-methyl-1H-pyrrol-2-yl)-N-cyclohexylbenzenesulfonamide] | 
30 | 7.32 | CC(C)NS(=O)(=O)c1ccc(-c2ccc(C#N)n2C)cc1F [Example 42, 4-(5-cyano-1-methyl-1H-pyrrol-2-yl)-2-fluoro-N-isopropylbenzenesulfonamide] | 
31 | 7.00 | Cn1c(C#N)ccc1-c1ccc(S(N)(=O)=O)cc1 [Example 63, 4-(5-cyano-1-methyl-1H-pyrrol-2-yl)benzenesulfonamide] | 
32 | 7.09 | CCN(CC)S(=O)(=O)c1ccc(-c2ccc(C#N)n2C)cc1C(F)(F)F [Example 22, 4-(5-cyano-1-methyl-1H-pyrrol-2-yl)-N,N-diethyl-2-(trifluoromethyl)benzenesulfonamide] | 
33 | 7.44 | CNS(=O)(=O)c1cc(F)c(-c2ccc(C#N)n2C)cc1F [Example 59, 4-(5-cyano-1-methyl-1H-pyrrol-2-yl)-2,5-difluoro-N-methylbenzenesulfonamide] | 
34 | 7.62 | CCCNS(=O)(=O)c1ccc(-c2ccc(C#N)n2C)cc1 [Example 4, 4-(5-cyano-1-methyl-1H-pyrrol-2-yl)-N-propylbenzenesulfonamide] | 
35 | 7.18 | CCN(C)S(=O)(=O)c1ccc(-c2ccc(C#N)n2C)cc1 [Example 7, 4-(5-cyano-1-methyl-1H-pyrrol-2-yl)-N-ethyl-N-methylbenzenesulfonamide] | 
36 | 7.32 | Cn1c(C#N)ccc1-c1ccc(S(=O)(=O)n2cccc2)cc1 [Example 18, 1-methyl-5-[4-(1H-pyrrol-1-ylsulfonyl)phenyl]-1H-pyrrole-2-carbonitrile] | 
37 | 7.04 | Cn1c(C#N)ccc1-c1ccc(S(N)(=O)=O)cc1F [Example 30, 4-(5-cyano-1-methyl-1H-pyrrol-2-yl)-3-fluorobenzenesulfonamide] | 
38 | 6.94 | Cn1c(C#N)ccc1-c1ccc(S(=O)(=O)N2CCCC2)c(C(F)(F)F)c1 [Example 26, 1-methyl-5-[4-(pyrrolidin-1-ylsulfonyl)-3-(trifluoromethyl)phenyl]-1H-pyrrole-2-carbonitrile] | 
